For series [1], the system named is human eosinophilic granulocytes. The series can be described thus: Inhibition of eosinophil activation by late-phase mediators, lucigenin-dependent chemiluminescence. It is filed as cell-based. The note with it: 0.5 h, test substance 100 μM, human eosinophils, CL over 30 minutes. From the text: The inhibitory action of the xanthines of formula I on the activation ability of human eosinophilic granulocytes by means of the late-phase mediators IL-5, GM-CSF, C5a and PAF was investigated with the aid of the lucigenin-dependent chemiluminescence (CL) reaction.
For this purpose, purified eosinophils were obtained from venous human blood according to known processes (Arch. Dermatol. Res. (1987) 279: 470-477 and J. Invest. Dermatol. (1986) 86: 523-528), pretreated with the test substances at the concentration 100 μM or with pure water (positive control (A)) at 37° C. for 10 minutes and then activated with IL-5 (10^2 U/ml), GM-CSF (10^3 U/ml), C5a (10^−7 M) or PAF (10^−6 M) or treated with water for the determination of the basal activity (B). The CL reaction was monitored over the course of 30 minutes measuring at 37° C. The residual activity of the cells pretreated with the test substances was calculated according to the following formula in percent of that of the positive control: [formula]
CLX describes the activity after stimulation of the cells pretreated with the xanthines,
CLA describes the activity after stimulation of the cells pretreated with water and
CLB describes the basal activity of unstimulated cells pretreated with water.

Series [2] relates to LTD4-induced contraction of isolated lung strips. The series can be described thus: Anticonstrictive action against LTD4-induced contraction of isolated lung strips. Details: species or system albino guinea pigs. The note with it: Cavia porcellus; guinea pig lung strips, LTD4 10^−8 g/ml, n=6. An excerpt:
(§1) The inhibitory action of the compounds of formula I on the proinflammatory early-phase mediators histamine, PAF and leukotriene D4 (LTD4) was investigated on isolated segments of the respiratory tract organs of albino guinea pigs, the inhibition of the contractions which can be caused by these mediators being used as measurement parameters.
(§2) To carry out the experiment, freshly prepared organs of male animals were used in each case. The trachea was divided into its rings, of which 5 tracheal rings in each case were linked with silk thread to give a chain, suspended under a tension of 0.5 g in an organ bath containing Tyrode solution at 37° C. through which was bubbled 95% O2/5% CO2, and contracted by addition of histamine dihydrochloride (bath concentration: 3×10^−7 g/ml) in the absence (control experiment) or in the presence of the test substances.
(§3) The lungs were cut longitudinally into 2 to 3 strips, using which the process as described above was carried out. The tension, however, was 1 g and the contraction was induced by PAF or LTD4 at a bath concentration of 10^−9 or 10^−8 g/mi.
(§4) Each experiment comprised the parallel investigation of 6 organ preparations (n=6).
(§5) The assessment of the action of the preparation was carried out with the aid of the IC50 values, which represent that concentration in μg/ml at which the organ contraction produced in the control experiment was reduced by half.

Series [3] concerns PAF-induced contraction of isolated lung strips. The series can be described thus: Anticonstrictive action against PAF-induced contraction of isolated lung strips. Details: species or system albino guinea pigs. The note with it: Cavia porcellus; guinea pig lung strips, PAF 10^−9 g/ml, n=6; read-out: Anticonstrictive action (IC50) PAT lung.
Source text: as §1, §2, §3, §4, §5

The test system of series [4] is histamine-induced contraction of isolated trachea. Description: Anticonstrictive action against histamine-induced contraction of isolated tracheal ring chains. Details: species or system albino guinea pigs. The note with it: Cavia porcellus; guinea pig tracheal chain, histamine dihydrochloride 3×10^−7 g/ml, n=6.
Source text: as §1, §2, §4, §5

Series [5] concerns ovalbumin-induced asthma attack. The series can be described thus: Inhibition of the antigen-induced early-phase reaction (ovalbumin-induced bronchospasm, Konzett-Rössler) in the presensitized guinea pig. It is filed as in vivo, albino guinea pigs. As to conditions: Cavia porcellus, iv, protected = asthma reaction reduced by at least 40% relative to control; for responders at 10 mg/kg: 10 mg/kg i.v. 15 minutes before antigen; for responders at 25 mg/kg: 25 mg/kg i.v. 15 minutes before antigen. As to the method:
Albino guinea pigs of both sexes having a body weight of 180 to 220 g were sensitized on two successive days by subcutaneous administration of 1 mg of ovalbumin (0.1% strength dissolved in physiological saline solution) in each case. 20 days later, the experiment was carried out according to the method of Konzett and […] (Arch. exp. Path. und Pharmak. (1940) 195: 75). For this purpose, the animals were anesthetized with pentobarbital, artificially ventilated, treated with alcuronium chloride to exclude spontaneous respiration and divided into groups of 6 animals in each case. By means of intravenous administration of ovalbumin as an antigen in a dose of 1 mg/kg, a long-lasting asthma attack was induced as a result of an acute bronchospasm induced by mediators in the course of the asthmatic early reaction, the intensity of which was quantified by means of the contraction height in the thoracogram. The test preparations were likewise administered intravenously 15 minutes before antigen provocation. Instead of this, the animals of the control group received pure 0.9% strength saline solution. To assess the action of the preparation, the number of animals of the respective collective in which the asthma reaction was reduced by at least 40% relative to the control animals was determined.

Where [6] appears, read: C5a 10^−7 M, read-out: Residual activity in % of the positive control A after stimulation with C5a.
The mark [7] stands for this setting: GM-CSF 10^3 U/ml, read-out: Residual activity in % of the positive control A after stimulation with GM-CSF.
Where [8] appears, read: IL-5 10^2 U/ml, read-out: Residual activity in % of the positive control A after stimulation with IL-5.
Where [9] appears, read: PAF 10^−6 M, read-out: Residual activity in % of the positive control A after stimulation with PAF.
The mark [10] stands for this setting: read-out: Protected animals after i.v. administration, % proportion.
Setting [11] is: read-out: Protected animals after i.v. administration, number (converted).

Converted amounts (≈) assume the structure as drawn. Like-named read-outs stand apart in the source and are kept apart here.

What is called IC50 is the concentration at which inhibition is half-maximal. Regarding `CCOCn1cnc2c1c(=O)n(CCCCC(C)(C)O)c(=O)n2C` [Torbafylline, 7-ethoxymethyl-1-(5-hydroxy-5-methylhexyl)-3-methylxanthine, reference compound], the activity at 100 µM in series [1] (setting [6]) worked out at 51%; in series [1] (setting [7]), 125%; in series [1] (setting [8]), 58%; in series [1] (setting [9]) it was 58%. Moreover, the figures for the IC50 in series [2], in series [3] and in series [4] were 10 to 30 µg/mL (≈ 29.6 to 88.7 µM), 3 to 6 µg/mL (≈ 8.87 to 17.7 µM) and 60 µg/mL (≈ 177 µM), respectively. For the same molecule, the responders at 10 mg/kg in series [5] (setting [10]) and in series [5] (setting [11]) was 0% in each case. Also, the responders at 25 mg/kg in series [5] (setting [10]) and in series [5] (setting [11]) was 0% throughout.
One may read the melting point as the temperature of the solid-liquid transition. On to `Cn1c(=O)n(CCCC(C)(C)O)c(=O)c2[nH]cnc21` [Example 5, 1-(4-hydroxy-4-methylpentyl)-3-methylxanthine], for which the melting point was 188 to 189 °C. In series [2], this molecule yielded a 50% inhibitory concentration (IC50) of 10 µg/mL (≈ 37.6 µM). The IC50 in series [3] turned out to be 3 µg/mL (≈ 11.3 µM). The molecule also registered an IC50 in series [4] of 30 µg/mL (≈ 113 µM).
Molecule `Cn1c(=O)n(CCCCCC(C)(C)O)c(=O)c2[nH]cnc21` [Example 12, 1-(6-Hydroxy-6-methylheptyl)-3-methylxanthine] displayed a melting point of 166 to 167 °C. In series [2], this molecule registered a concentration for half-maximal inhibition (IC50) of 6 to 10 µg/mL (≈ 20.4 to 34 µM). The IC50 in series [3] was in the range of 3 to 6 µg/mL (≈ 10.2 to 20.4 µM). This molecule returned an IC50 in series [4] of 3 to 10 µg/mL (≈ 10.2 to 34 µM). For the same molecule, in series [5] (setting [10]), the responders at 10 mg/kg amounted to 50% and the responders at 25 mg/kg was found to be 67%. Also, in series [5] (setting [11]), the responders at 10 mg/kg was 50% and the responders at 25 mg/kg is 66.7%.
In turn, `CCn1c(=O)n(CCCC(C)(C)O)c(=O)c2[nH]cnc21` [Example 6, 3-Ethyl-1-(4-hydroxy-4-methylpentyl)xanthine] came in with a melting point of 214 to 216 °C. Besides, in series [2], the IC50 was 1 to 3 µg/mL (≈ 3.57 to 10.7 µM). Besides, the IC50 in series [3] was found to be 3 µg/mL (≈ 10.7 µM). This molecule returned an IC50 in series [4] of 30 µg/mL (≈ 107 µM).
Take `CCn1c(=O)n(CCCCC(C)(C)O)c(=O)c2[nH]cnc21` [Example 10, 3-Ethyl-1-(5-hydroxy-5-methylhexyl)xanthine]: the melting point is 180 to 182 °C.
On the same count and under the same terms, the same measure for `Cn1c(=O)n(CC(C)(C)O)c(=O)c2[nH]cnc21` [Example 1, 1-(2-Hydroxy-2-methylpropyl)-3-methylxanthine]: 215 to 217 °C.
For `CCn1c(=O)n(CC(C)(C)O)c(=O)c2[nH]cnc21` [Example 2, 3-Ethyl-1-(2-hydroxy-2-methylpropyl)xanthine], in series [5] (setting [10]), the responders at 10 mg/kg is 33% and the responders at 25 mg/kg was found to be 67%. Besides, in series [5] (setting [11]), the responders at 10 mg/kg was 33.3% and the responders at 25 mg/kg is 66.7%.
In turn, `CCn1c(=O)n(CCC(C)(C)O)c(=O)c2[nH]cnc21` [Example 4, 3-Ethyl-1-(3-hydroxy-3-methylbutyl)xanthine] displayed a melting point of 241 to 243 °C. Further, the IC50 in series [3] was in the range of 1 to 3 µg/mL (≈ 3.76 to 11.3 µM). This molecule also registered a concentration for half-maximal inhibition (IC50) in series [4] of 10 µg/mL (≈ 37.6 µM). For the same molecule, in series [5] (setting [10]), the responders at 10 mg/kg was 17% and the responders at 25 mg/kg is 50%. For the same molecule, in series [5] (setting [11]), the responders at 10 mg/kg was 16.7% and the responders at 25 mg/kg was 50%.
Molecule `CCn1c(=O)n(CCCCC(C)(O)CC)c(=O)c2[nH]cnc21` (stereo not drawn) [Example 11, 3-Ethyl-1-(5-hydroxy-5-methylheptyl)xanthine] had a melting point of 165 to 166 °C.
On to `CCn1c(=O)n(CCCCCC(C)(C)O)c(=O)c2[nH]cnc21` [Example 13, 3-Ethyl-1-(6-hydroxy-6-methylheptyl)xanthine], for which the melting point lay within 163 to 165 °C. The IC50 in series [3] was found to be 1 µg/mL (≈ 3.24 µM). In series [4], this molecule gave an IC50 of 10 to 30 µg/mL (≈ 32.4 to 97.3 µM).
Molecule `Cn1c(=O)n(CCCCC(C)(O)CO)c(=O)c2[nH]cnc21` (stereo not drawn) [Example 8, 1-(5,6-Dihydroxy-5-methylhexyl)-3-methylxanthine] yielded a melting point of 181 to 182 °C. This molecule showed an IC50 in series [2] of 10 µg/mL (≈ 33.7 µM). Also, the IC50 in series [3] came to 6 µg/mL (≈ 20.2 µM). The molecule also showed an IC50 in series [4] of 10 to 30 µg/mL (≈ 33.7 to 101 µM). In series [5] (setting [10]), the responders at 10 mg/kg was 50% and the responders at 25 mg/kg is 50%. In series [5] (setting [11]), the responders at 10 mg/kg is 50% and the responders at 25 mg/kg is 50%.
As for `Cn1c(=O)n(CCC(C)(C)O)c(=O)c2[nH]cnc21` [Example 3, 1-(3-Hydroxy-3-methylbutyl)-3-methylxanthine], the melting point lay within 203 to 205 °C.
As for `CCC(C)(O)CCCCn1c(=O)c2[nH]cnc2n(C)c1=O` (stereo not drawn) [Example 9, 1-(5-Hydroxy-5-methylheptyl)-3-methylxanthine], the melting point lay within 169 to 170 °C. The IC50 in series [2] lay in the range of 10 to 30 µg/mL (≈ 34 to 102 µM). Moreover, the IC50 in series [3] is 10 µg/mL (≈ 34 µM). The IC50 in series [4] fell in the range of 10 to 30 µg/mL (≈ 34 to 102 µM). For the same molecule, in series [5] (setting [10]), the responders at 10 mg/kg was 67% and the responders at 25 mg/kg came to 83%. Moreover, in series [5] (setting [11]), the responders at 10 mg/kg was 66.7% and the responders at 25 mg/kg was 83.3%.
For `CC(=O)CCCCn1c(=O)c2c(ncn2C)n(C)c1=O` [Pentoxifylline, 3,7-dimethyl-1-(5-oxohexyl)xanthine, reference compound], the activity at 100 µM stood at 56% in series [1] (setting [6]), 70% in series [1] (setting [7]), 57% in series [1] (setting [8]) and 45% in series [1] (setting [9]). Also, the values for the IC50 in series [2], in series [3] and in series [4] were 30 to 60 µg/mL (≈ 108 to 216 µM), 3 µg/mL (≈ 10.8 µM) and 30 to 60 µg/mL (≈ 108 to 216 µM), respectively. The responders at 10 mg/kg in series [5] (setting [10]) is 17%; in series [5] (setting [11]), 16.7%. In addition, the responders at 25 mg/kg in series [5] (setting [10]) was 33%; in series [5] (setting [11]), 33.3%.

The values are drawn from patent publication US20020010333A1, “Use of xanthine derivatives for reducing the pathological hyperreactivity of eosinophilic granulocytes, novel xanthine compounds and process for their preparation” (Hoechst Aktiengesellschaft, priority 1994, published 2002).
